Tests used:
HDH Q111/111 cells = assay: XTT Cell Proliferation assay (viability); conditions: FIGS. 2A and 2B
Experimental: (§1) All cell culture methods were carried out under sterile conditions in a class II laminar flow cabinet. The immortalized cell lines, ST HDH Q111/111 and ST HDH Q7/7 were derived from striatal neurons from HdhQ111/Q111 and HdhQ7/Q7 mice (expressing 111 and 7 glutamine repeats, respectively) and were purchased from Coriell. Cells were cultured in Dulbecco's Modified Eagle Medium (DMEM) supplemented with 10% FBS, 4 mM L-alanyl-L-glutamine (Corning Glutagro), and 400 μg/mL G418. Cells were grown at 33° C. in a 5% CO2 incubator. All experiments used cells with passages lower than 14.
(§2) Cells were plated at a density of 8×10^3 or 1.2×10^3 cells/well (CellTox or XTT, respectively) in sterile 96 well plates (100 uL). Cells were allowed to adhere overnight at 33° C. in a 5% CO2 incubator. Test compounds were applied and left to incubate for an additional 24 hours. Membrane integrity was assessed by staining with CellTox Green (Promega) reagent following manufacturer guidelines for the Endpoint (2×) Method. Viability was assessed using an XTT Cell Proliferation Kit (ATCC). Before adding XTT reagent, wells were aspirated and washed with serum free media. 50 uL of XTT reagent and 100 uL serum free media were then added to each well and incubated for 2-4 hours before acquiring data. […]

[1] = system: ST HDH Q111/111 striatal cells; assay: Permeability/Cell Death assay based on CellTox Green (membrane integrity)
Experimental: as §1, §2

striatal cells = assay: Live cell count after 24 or 48 hours of culture with glutamate (Cellometer); format: cell-based, mice; conditions: cells cultured with glutamate, cysteamine administered 24 hours later; FIG. 3
Experimental: All experiments used cells with passages lower than 14. Cells were seeded into sterile 12 well plates at an appropriate density (80-120 k cells/well) to reach 50-75% confluence after 24 hours. […] Thereafter, wells were treated with test compounds. Following incubation with the compounds for 24 or 48 hours, wells were rinsed with DPBS, and detached using 500 uL Accutase (EMD). Pellets were rinsed and re-suspended in 250 uL DPBS and live cells were counted on a Cellometer Auto 2000.

Row | SMILES | glutamate excitotoxicity (XTT Cell Proliferation) (HDH Q111/111 cells; glutamate in culture, HDH Q111/111 cells) | cytotoxicity (Cell Tox Green) ([1]; 5 mM glutamate given alone, 24 hours, FIG. 1A) | rescue of glutamate-induced excitotoxicity (XTT Cell Proliferation) (HDH Q111/111 cells; cysteamine 25 μM in culture with glutamate) | rescue of glutamate-induced excitotoxicity (XTT Cell Proliferation) (HDH Q111/111 cells; cysteamine 75 μM in culture with glutamate) | cell viability (striatal cells) | number of dead cells (CellTox Green) ([1]; HDH cells cultured with cysteamine and BSO, compared to BSO alone) | sensitivity of cells to toxicity induced by glutamate and/or the test agents ([1]; cysteamine in combination with GFPB (5 mM), and NMDA (500 uM)+4CPG (250 uM) or BSO (250 uM), FIG. 1B)
1 | N[C@@H](CCC(=O)O)C(=O)O [glutamate, L-Glutamic acid] | experience glutamate excitotoxicity | toxic to cells |  |  |  |  | 
2 | NCCS [cysteamine, 2-aminoethanethiol] |  |  | able to rescue glutamate-induced excitotoxicity | able to rescue glutamate-induced excitotoxicity | positive effects of cysteamine on the cell viability was still observed | reduced the number of dead cells | able to reduce sensitivity of cells to toxicity

— patent US20210113496A1, “Methods of Treating Excitotoxicity Disorders” (HORIZON ORPHAN LLC, priority 2018, published 2021)
